Where two headings read alike, the source gives them in different places.
Legend:
MCF-7 cells = assay: MCF-7 GI50 determination (crystal violet growth inhibition); format: cell-based, human; details: Homo sapiens, MCF7, 96 h
Procedure: Growth inhibition (GI50) values were measured on the human breast carcinoma line, MCF-7. MCF-7 cells were plated at 2×10^4 cells/well in 96 well plates and grown for 24 hours in drug free media. On day 2, test compounds were added to the plates at 10-fold dilutions. Four days later, cells were fixed by the addition of glutaraldehyde to 0.75%. After 30 min, the fixed cells were extensively rinsed with distilled water and dried at room temperature for one hour. The cells were then stained with a 0.2% crystal violet solution for one hour at room temperature. Unbound stain was removed by ten rinses with tap water and plates were allowed to air dry for 30 min. The crystal violet was then solubilized by the addition of 10% acetic acid for 15 min and quantified by measuring absorbance at 570 nm on a Molecular Devices microplate reader. Growth inhibition was calculated according to the following equation: GI=[…], where the optical density (OD) of the test well after 4 days of treatment was T, the OD of the wells in the control plate on day 0 was T0. Plots of percent growth inhibition versus inhibitor concentration were used to determine the GI50.

HeLa S-3 cells = assay: HeLa GI50 determination (SRB growth inhibition); format: cell-based, human; details: Homo sapiens, HeLa S3, 48 h
Procedure: Growth inhibition (GI50) values were measured on the human cervical carcinoma cell line, HeLa S-3, which were selected for growth on plastic. The HeLa cell assay was based on the description of Skehan et al., J. Natl. Cancer Inst., 82:1107-12 (1990), which is hereby incorporated by reference in its entirety. HeLa cells were plated at 2×10^4 cells/well in 96 well plates. One day later, a control plate was fixed by the addition of TCA to 5%. After five rinses with tap water, the plate was air-dried and stored at 4° C. Test compounds were added to the remaining plates at 10-fold dilutions. Two days later, all plates were fixed as described above. Cells were then stained by the addition of 100 μL per well of 0.4% sulforhodamine B (SRB) in 1% acetic acid for 30 min at 4° C. Wells were then quickly rinsed 5× with 1% acetic acid and allowed to air dry. The SRB was then solubilized by the addition of 100 μL per well of unbuffered 10 mM Tris base. Dye was quantified by measuring absorbance at 490 nm on a Molecular Devices microplate reader. Growth inhibition was calculated according to the following equation: GI=100×(T−T0)/(C−T0), where the optical density (OD) of the test well after 2 days of treatment was T, the OD of the wells in the control plate on day 0 was T0 and C was the OD of untreated wells. Plots of percent growth inhibition versus inhibitor concentration were used to determine the GI50.

[1] = read-out: MCF-7 Cells GI50 (nM)
[2] = MCF-7 cells, 4 days of treatment, crystal violet, read-out: MCF-7 Cells GI50
[3] = HeLa S-3 cells, 2 days of treatment, sulforhodamine B, read-out: HeLa Cells GI50

| Structure (SMILES) | GI50 (MCF-7 cells; [1]) [nM] | GI50 (HeLa S-3 cells; read-out: HeLa Cells GI50 (nM)) [nM] | GI50 (MCF-7 cells; [2]) [nM] | GI50 (HeLa S-3 cells; [3]) [nM] |
| --- | --- | --- | --- | --- |
| CC[C@]1(O)C[C@H]2CN(CCc3c([nH]c4ccc(-c5cccnc5)cc34)[C@@](C(=O)OC)(c3cc4c(cc3OC)N(C)[C@H]3[C@@](O)(C(=O)OC)[C@H](OC(C)=O)[C@]5(CC)C=CCN6CC[C@]43[C@@H]65)C2)C1 [Example 13, 12′-(3-pyridyl) vinblastine] | 600 | > 1000 |  |  |
| CC[C@]1(O)C[C@H]2CN(CCc3c([nH]c4ccc(/C=C/C(=O)O)cc34)[C@@](C(=O)OC)(c3cc4c(cc3OC)N(C)[C@H]3[C@@](O)(C(=O)OC)[C@H](OC(C)=O)[C@]5(CC)C=CCN6CC[C@]43[C@@H]65)C2)C1 [Example 28, 12′-(2-carboxylvinyl) vinblastine] | 300 | 100 |  |  |
| C=Cc1ccc2[nH]c3c(c2c1)CCN1C[C@H](C[C@@](O)(CC)C1)C[C@]3(C(=O)OC)c1cc2c(cc1OC)N(C)[C@H]1[C@@](O)(C(=O)OC)[C@H](OC(C)=O)[C@]3(CC)C=CCN4CC[C@]21[C@@H]43 [Example 25, 12′-vinylvinblastine] |  |  | 9 | 3 |
| CC[C@]1(O)C[C@H]2CN(CCc3c([nH]c4ccc(N)cc34)[C@@](C(=O)OC)(c3cc4c(cc3OC)N(C)[C@H]3[C@@](O)(C(=O)OC)[C@H](OC(C)=O)[C@]5(CC)C=CCN6CC[C@]43[C@@H]65)C2)C1 [Example 80, 12′-aminovinblastine] |  |  | 200 | 200 |
| CC[C@]1(O)C[C@H]2CN(CCc3c([nH]c4cc(C)c(C)cc34)[C@@](C(=O)OC)(c3cc4c(cc3OC)N(C=O)[C@H]3[C@@](O)(C(=O)OC)[C@H](OC(C)=O)[C@]5(CC)C=CCN6CC[C@]43[C@@H]65)C2)C1 [Example 93, 12′,13′-dimethyl vincristine] | 30 | 20 |  |  |
| CC[C@]1(O)C[C@H]2CN(CCc3c([nH]c4ccc(C#CCN(C)C)cc34)[C@@](C(=O)OC)(c3cc4c(cc3OC)N(C)[C@H]3[C@@](O)(C(=O)OC)[C@H](OC(C)=O)[C@]5(CC)C=CCN6CC[C@]43[C@@H]65)C2)C1 [Example 24, 12′-(N,N-dimethylaminopropynyl)vinblastine] | 400 | 300 |  |  |
| CC[C@]1(O)C[C@H]2CN(CCc3c([nH]c4ccc(SCCNC(C)=O)cc34)[C@@](C(=O)OC)(c3cc4c(cc3OC)N(C)[C@H]3[C@@](O)(C(=O)OC)[C@H](OC(C)=O)[C@]5(CC)C=CCN6CC[C@]43[C@@H]65)C2)C1 [Example 52, 12′-(2-(acetylamino)ethylsulfanyl) vinblastine] | 300 | 200 |  |  |
| CC[C@]1(O)C[C@H]2CN(CCc3c([nH]c4ccc(-c5ccsc5)cc34)[C@@](C(=O)OC)(c3cc4c(cc3OC)N(C)[C@H]3[C@@](O)(C(=O)OC)[C@H](OC(C)=O)[C@]5(CC)C=CCN6CC[C@]43[C@@H]65)C2)C1 [Example 14, 12′-(3-thienyl) vinblastine] | 300 | 300 |  |  |
| CCCCC#Cc1ccc2[nH]c3c(c2c1)CCN1C[C@H](C[C@@](O)(CC)C1)C[C@]3(C(=O)OC)c1cc2c(cc1OC)N(C)[C@H]1[C@@](O)(C(=O)OC)[C@H](OC(C)=O)[C@]3(CC)C=CCN4CC[C@]21[C@@H]43 [Example 23, 12′-hexynylvinblastine] |  |  | 50 | 40 |
| CC[C@]1(O)C[C@H]2CN(CCc3c([nH]c4cc(I)c(C)cc34)[C@@](C(=O)OC)(c3cc4c(cc3OC)N(C=O)[C@H]3[C@@](O)(C(=O)OC)[C@H](OC(C)=O)[C@]5(CC)C=CCN6CC[C@]43[C@@H]65)C2)C1 [Example 92, 13′-iodo-12′-methyl vincristine] | 30 | 30 |  |  |
| CC[C@]1(O)C[C@H]2CN(CCc3c([nH]c4ccc(-c5ccccc5)cc34)[C@@](C(=O)OC)(c3cc4c(cc3OC)N(C=O)[C@H]3[C@@](O)(C(=O)OC)[C@H](OC(C)=O)[C@]5(CC)C=CCN6CC[C@]43[C@@H]65)C2)C1 [Example 5, 12′-phenylvincristine] | 30 | 50 |  |  |
| CC[C@]1(O)C[C@H]2CN(CCc3c([nH]c4ccc(/C=C/C(=O)OC(C)(C)C)cc34)[C@@](C(=O)OC)(c3cc4c(cc3OC)N(C)[C@H]3[C@@](O)(C(=O)OC)[C@H](OC(C)=O)[C@]5(CC)C=CCN6CC[C@]43[C@@H]65)C2)C1 [Example 27, 12′-(2-tert-butoxycarbonylvinyl) vinblastine] | 300 | 200 |  |  |
| CC[C@]1(O)C[C@H]2CN(CCc3c([nH]c4ccc(N(C)C)cc34)[C@@](C(=O)OC)(c3cc4c(cc3OC)N(C)[C@H]3[C@@](O)(C(=O)OC)[C@H](OC(C)=O)[C@]5(CC)C=CCN6CC[C@]43[C@@H]65)C2)C1 [Example 81, 12′-(N,N-dimethylamino)vinblastine] |  |  | 50 | 30 |
| CC[C@]1(O)C[C@H]2CN(CCc3c([nH]c4ccc(S)cc34)[C@@](C(=O)OC)(c3cc4c(cc3OC)N(C)[C@H]3[C@@](O)(C(=O)OC)[C@H](OC(C)=O)[C@]5(CC)C=CCN6CC[C@]43[C@@H]65)C2)C1 [Example 53, 12′-thiovinblastine] |  |  | 30 | 20 |
| CC[C@]1(O)C[C@H]2CN(CCc3c([nH]c4ccc(SSC(C)C)cc34)[C@@](C(=O)OC)(c3cc4c(cc3OC)N(C)[C@H]3[C@@](O)(C(=O)OC)[C@H](OC(C)=O)[C@]5(CC)C=CCN6CC[C@]43[C@@H]65)C2)C1 [Example 58, 12′-(isopropyldisulfanyl) vinblastine] | 100 | 200 |  |  |
| CC[C@]1(O)C[C@H]2CN(CCc3c([nH]c4ccc(-c5ccc(OC)cc5)cc34)[C@@](C(=O)OC)(c3cc4c(cc3OC)N(C=O)[C@H]3[C@@](O)(C(=O)OC)[C@H](OC(C)=O)[C@]5(CC)C=CCN6CC[C@]43[C@@H]65)C2)C1 [Example 7, 12′-(4-methoxyphenyl) vincristine] | 100 | 400 |  |  |
| CC[C@]1(O)C[C@H]2CN(CCc3c([nH]c4ccc(SCCO)cc34)[C@@](C(=O)OC)(c3cc4c(cc3OC)N(C)[C@H]3[C@@](O)(C(=O)OC)[C@H](OC(C)=O)[C@]5(CC)C=CCN6CC[C@]43[C@@H]65)C2)C1 [Example 35, 12′-(2-hydroxyethylsulfanyl)vinblastine] |  |  | 60 | 200 |
| CC[C@]1(O)C[C@H]2CN(CCc3c([nH]c4ccc(C=O)cc34)[C@@](C(=O)OC)(c3cc4c(cc3OC)N(C)[C@H]3[C@@](O)(C(=O)OC)[C@H](OC(C)=O)[C@]5(CC)C=CCN6CC[C@]43[C@@H]65)C2)C1 [Example 61, 12′-formylvinblastine] |  |  | 3 | 3 |
| CC[C@]1(O)C[C@H]2CN(CCc3c([nH]c4ccc(SCc5ccc(OC)cc5)cc34)[C@@](C(=O)OC)(c3cc4c(cc3OC)N(C)[C@H]3[C@@](O)(C(=O)OC)[C@H](OC(C)=O)[C@]5(CC)C=CCN6CC[C@]43[C@@H]65)C2)C1 [Example 36, 12′-(4-methoxybenzylsulfanyl)vinblastine] | 50 | 30 |  |  |
| CC[C@]1(O)C[C@H]2CN(CCc3c([nH]c4ccc(SC)cc34)[C@@](C(=O)OC)(c3cc4c(cc3OC)N(C)[C@H]3[C@@](O)(C(=O)OC)[C@H](OC(C)=O)[C@]5(CC)C=CCN6CC[C@]43[C@@H]65)C2)C1 [Example 43, 12′-(methylsulfanyl) vinblastine] |  |  | 2 | 0.6 |
| CC[C@]1(O)C[C@H]2CN(CCc3c([nH]c4ccc(Nc5ccc(OC)cc5)cc34)[C@@](C(=O)OC)(c3cc4c(cc3OC)N(C)[C@H]3[C@@](O)(C(=O)OC)[C@H](OC(C)=O)[C@]5(CC)C=CCN6CC[C@]43[C@@H]65)C2)C1 [Example 83, 12′-(4-methoxyphenylamino)vinblastine] | 500 | 300 |  |  |
| CCCSc1ccc2[nH]c3c(c2c1)CCN1C[C@H](C[C@@](O)(CC)C1)C[C@]3(C(=O)OC)c1cc2c(cc1OC)N(C)[C@H]1[C@@](O)(C(=O)OC)[C@H](OC(C)=O)[C@]3(CC)C=CCN4CC[C@]21[C@@H]43 [Example 39, 12′-(propylsulfanyl) vinblastine] |  |  | 25 | 25 |

— patent publication US7745619B2, “Vinca derivatives” (priority 2003, dated 2010)
